The numbers were not newly measured in patent US6784266B2, “Dual stimuli-responsive hydrogels and their synthetic methods” (Korea Institute of Science and Technology, priority 2002, dated 2004), which cites them from elsewhere.

Each structure is given as a SMILES string.

The conditions of this data set: pKa stated for the sulfonamide reagent; no measurement method described.

In general, pKa refers to the pH at which an ionisable group is half protonated. Consider `COc1ccc(NS(=O)(=O)c2ccc(N)cc2)nn1` [sulfamethoxypyridazine], for which the pKa is listed as 6.7.
